We go through twelve molecules from paper PMC6305410, “High-Throughput Screening for Bacterial Glycosyltransferase Inhibitors” (Frontiers in Cellular and Infection Microbiology, 2018).

For the experiment, the target named is T1, NleB1 (Escherichia coli, UniProt Q8XBX8).
T1 construct: GST-EHEC-NleB1 in pET42a (GST/His tagged), expressed in E. coli BL21 (DE3), nickel purified; some tag cleavage noted
Conditions: inhibitor; for % NleB1 inhibition (µM compound) / 10: 10 µM; for % NleB1 inhibition (µM compound) / 20: 20 µM; for % NleB1 inhibition (µM compound) / 40: 40 µM; for % NleB1 inhibition (µM compound) / 80: 80 µM; for % NleB1 inhibition (µM compound) / 160: 160 µM.

On to `CN(C)CCN1CCN(C2CN(Cc3cn(Cc4ccc(F)cc4)nn3)S(=O)(=O)C2)CC1` (stereo not drawn) [KUC108117N], for which the “% NleB1 inhibition (µM compound) / 10” value worked out at 5.6%, the “% NleB1 inhibition (µM compound) / 20” value was 23.7%, the “% NleB1 inhibition (µM compound) / 40” value is 25.1% and the “% NleB1 inhibition (µM compound) / 80” value is 21.8%. Also, the “% NleB1 inhibition (µM compound) / 160” value was found to be 21.8%.
On to `CN1CCC(N2CCN(C3CN(Cc4cn(Cc5cccc(Cl)c5)nn4)S(=O)(=O)C3)CC2)CC1` (stereo not drawn) [KUC108133N], for which the “% NleB1 inhibition (µM compound) / 10” value was 4.1%, the “% NleB1 inhibition (µM compound) / 20” value is recorded as 18.2%, the “% NleB1 inhibition (µM compound) / 40” value is on record as 22.3% and the “% NleB1 inhibition (µM compound) / 80” value is on record as 18.0%. The “% NleB1 inhibition (µM compound) / 160” value came out at 18.2%.
On to `O=S1(=O)CC(N2CCN(Cc3ccccc3F)CC2)CN1Cc1cn(Cc2cccc(Cl)c2)nn1` (stereo not drawn) [KUC108236N], for which the “% NleB1 inhibition (µM compound) / 10” value was 13.5%, the “% NleB1 inhibition (µM compound) / 20” value is 26.7%, the “% NleB1 inhibition (µM compound) / 40” value is given as 13.1% and the “% NleB1 inhibition (µM compound) / 80” value worked out at 12.7%. Besides, the “% NleB1 inhibition (µM compound) / 160” value was 18.4%.
`C[C@H](c1ccccc1)N1C[C@@H](COCc2ccccc2)Oc2cc(N3CC[C@@H](O)C3)ccc2S1(=O)=O` [KUC108511N]: the “% NleB1 inhibition (µM compound) / 10” value was 33.8%, the “% NleB1 inhibition (µM compound) / 20” value was 33.0%, the “% NleB1 inhibition (µM compound) / 40” value was found to be 29.9% and the “% NleB1 inhibition (µM compound) / 80” value came to 49.8%. Further, the “% NleB1 inhibition (µM compound) / 160” value is on record as 63.7%.
Consider `Cc1ccc2c(c1)C1CS(=O)(=O)N(C3CCCC3)C(=O)N1C2` (stereo not drawn) [KUC109525N], for which the “% NleB1 inhibition (µM compound) / 10” value was determined as 26.3%, the “% NleB1 inhibition (µM compound) / 20” value worked out at 31.5%, the “% NleB1 inhibition (µM compound) / 40” value is on record as 20.9% and the “% NleB1 inhibition (µM compound) / 80” value was determined as 19.5%. The “% NleB1 inhibition (µM compound) / 160” value worked out at 29.3%.
Turning to `COC(=O)[C@H](C(C)C)N1Cc2nnn(Cc3ccccc3)c2-c2ccccc2S1(=O)=O` [KUC110604N], the “% NleB1 inhibition (µM compound) / 10” value is listed as 4.8%, the “% NleB1 inhibition (µM compound) / 20” value was determined as 15.1%, the “% NleB1 inhibition (µM compound) / 40” value amounted to 17.9% and the “% NleB1 inhibition (µM compound) / 80” value was determined as 21.1%. The “% NleB1 inhibition (µM compound) / 160” value came out at 17.9%.
`C[C@H]1CC[C@]2(CCC(=O)N2CCCOC(=O)c2ccccc2)CC1` [KUC110967N]: the “% NleB1 inhibition (µM compound) / 10” value was found to be 45.2%, the “% NleB1 inhibition (µM compound) / 20” value is recorded as 53.8%, the “% NleB1 inhibition (µM compound) / 40” value was determined as 62.0% and the “% NleB1 inhibition (µM compound) / 80” value worked out at 71.4%. For the same molecule, the “% NleB1 inhibition (µM compound) / 160” value stood at 78.5%.
On to `Cc1ccc([C@H]2CC[C@]3(CCC(=O)N3CCOC(=O)Nc3cccc(C#N)c3)CC2)cc1` [KUC111012N], for which the “% NleB1 inhibition (µM compound) / 10” value stood at 17.3%, the “% NleB1 inhibition (µM compound) / 20” value came out at 25.1%, the “% NleB1 inhibition (µM compound) / 40” value is given as 22.4% and the “% NleB1 inhibition (µM compound) / 80” value came to 20.7%. The “% NleB1 inhibition (µM compound) / 160” value is recorded as 20.5%.
For `C[C@@H]1CCCN1c1ccc2c(c1)O[C@@H]1CCN(C1)S2(=O)=O` [KUC111139N] the same measures were 32.7%, 34.1%, 35.7%, 38.7% and 40.7%.
Take `O=C(c1ccc(F)cc1)N1CCCC2(CC(c3cccc(Cl)c3)=CO2)C1` (stereo not drawn) [KUC111570N]: the “% NleB1 inhibition (µM compound) / 10” value came to 3.2%, the “% NleB1 inhibition (µM compound) / 20” value stood at 3.8%, the “% NleB1 inhibition (µM compound) / 40” value is 5.2% and the “% NleB1 inhibition (µM compound) / 80” value is on record as 24.2%. Besides, the “% NleB1 inhibition (µM compound) / 160” value is 42.6%.
`CCC[C@H]1[C@@H](OC(=O)NCc2ccc(OC)cc2)CC[C@@]23CCCN2C(=O)CCC[C@@H]13` [KUC112136N]: the “% NleB1 inhibition (µM compound) / 10” value was determined as 15.7%, the “% NleB1 inhibition (µM compound) / 20” value amounted to 22.0%, the “% NleB1 inhibition (µM compound) / 40” value came out at 20.8% and the “% NleB1 inhibition (µM compound) / 80” value came to 28.5%. For the same molecule, the “% NleB1 inhibition (µM compound) / 160” value is 30.5%.
Taken in the same sequence, the figures for `O=C(Oc1ccc([N+](=O)[O-])cc1)O[C@H]1CC[C@@]23CCCN2C(=O)CCC[C@H]3[C@H]1Cc1ccccc1` [KUC112275N] were 2.6%, 5.6%, 11.0%, 24.2% and 34.9%.
